# Columns and labels:
# [1] = test system: genomically recoded organism (GRO); type: cell-based, E. coli; details: pAzF held constant at 1 mM; for reductions in OD consistent with reaction with pAzF: canonical amino acid controls; for reductions in FL/OD (GFP fluorescence divided by OD600): alkyne containing compound varied from 10 uM-10 mM, GRO culture
# Excerpt: To meet the third criteria, NSAA expression using previously evolved amino acyl synthetase/tRNA pairs was used. Synthetases charge a cognate amino acid substrate onto the cognate tRNA pair. An amino acid, a synthetase, and a tRNA form a triad that is required to make that amino acid competent for translation and addition to the nascent polypeptide chain. Amino acid/synthetase/tRNA triads are generally specific thereby preserving the fidelity of the translation of genetic code into proteins. As such, new synthetase/tRNA pairs that function specifically with each other are generated and used to add new NSAAs to the genetic code (or to evaluate the bio-orthogonality of bond-forming NSAA candidates). Alternatively, known synthetase/tRNA pairs are used to evaluate the bio-orthgonality of bond-forming NSAA candidate pairs.
# First, genomically recoded organisms (“GRO”) as described above were cultured in triplicate in LB-Lennox broth, across a dilution series from 1 uM to 10 mM (incl. 0 uM) NSAA in a 96-well plate. GRO growth (OD600) was kinetically monitored to quantify growth rates and reductions were measured as time to OD600=0.4 and Vmax (dODmax/dt). These experiments helped define the sub-toxic concentration range of an NSAA of interest. Second, the GRO strain was transformed with an L-arabinose-inducible plasmid bearing the synthetase/tRNA that are specific for the NSAA side chain reactivity being evaluated. See Lajoie, M. J. et al. Genomically recoded organisms expand biological functions. Science 342, 357-360, doi:10.1126/science.1241459 (2013) hereby incorporated by reference in its entirety. […] Only GROs will read these codons as sense codons, not terminate the GFP_UAG translation, and generate NSAA-containing GFP that fluoresces. Patent translation of GFP_UAG (e.g., fluorescence) requires culture in NSAA and transformation with a plasmid bearing the proper synthetase/tRNA pair to use that NSAA. In this way, GFP fluorescence can be a quantitative metric for NSAA-containing protein translation. […] Due to auto-fluorescence of LB-Lennox media, the cells were washed twice in phosphate-buffered saline (pH 7.2) by centrifugation at 4,000×g for 5 minutes. After the second wash, the cells were resuspended in 150 uL PBS for measurement of growth (OD600) and GFP fluorescence (excitation 388 nm, emission 510 nm) using a Biotek Synergy H1/H4 or a Molecular Devices M5 Spectrophotometer. GFP translation was normalized by OD600 as fluorescence divided by OD600 when measured (FL/OD), and optimal concentration of NSAA was FL/ODmax.
# Once optimal NSAA concentration was determined, a candidate NSAA is tested to determine whether it impairs translation of the other cognate pair. […] After culture and washing as above, FL/OD was measured and plotted as a function of the NSAA being varied. […]
# [2] = test system: genomically recoded organism (GRO); assay: titration of optimal NSAA concentration by GFP_UAG fluorescence assay (FL/ODmax); type: cell-based, E. coli; details: GRO bearing synthetase/tRNA and GFP_UAG reporter plasmids; NSAA range 10 uM to 10 mM
# Procedure: First, genomically recoded organisms (“GRO”) as described above were cultured in triplicate in LB-Lennox broth, across a dilution series from 1 uM to 10 mM (incl. 0 uM) NSAA in a 96-well plate. GRO growth (OD600) was kinetically monitored to quantify growth rates and reductions were measured as time to OD600=0.4 and Vmax (dODmax/dt). These experiments helped define the sub-toxic concentration range of an NSAA of interest. Second, the GRO strain was transformed with an L-arabinose-inducible plasmid bearing the synthetase/tRNA that are specific for the NSAA side chain reactivity being evaluated. See Lajoie, M. J. et al. Genomically recoded organisms expand biological functions. […] Only GROs will read these codons as sense codons, not terminate the GFP_UAG translation, and generate NSAA-containing GFP that fluoresces. Patent translation of GFP_UAG (e.g., fluorescence) requires culture in NSAA and transformation with a plasmid bearing the proper synthetase/tRNA pair to use that NSAA. In this way, GFP fluorescence can be a quantitative metric for NSAA-containing protein translation. […] Due to auto-fluorescence of LB-Lennox media, the cells were washed twice in phosphate-buffered saline (pH 7.2) by centrifugation at 4,000×g for 5 minutes. […] GFP translation was normalized by OD600 as fluorescence divided by OD600 when measured (FL/OD), and optimal concentration of NSAA was FL/ODmax.
Compound,reductions in OD consistent with reaction with pAzF [1],reductions in FL/OD (GFP fluorescence divided by OD600) [1],also measured
N[C@@H](Cc1ccc(O)cc1)C(=O)O [tyrosine],do not show any reductions in OD,,
N[C@@H](CO)C(=O)O [serine],do not show any reductions in OD,,
"[N-]=[N+]=Nc1ccc(C[C@H](N)C(=O)O)cc1 [pAzF, para-azido-phenylalanine]",,,optimal concentration of NSAA (FL/ODmax) [2]: 1 mM
C1#CCCCCCC1 [unsubstituted cyclo-octynes],,no reductions in FL/OD,
"C#CCONCC(=O)O [pPrG, propargyl-oxyglycine]",,no reductions in FL/OD,

# From patent US10910085B2, “Methods of making polypeptides with non-standard amino acids using genomically recoded organisms” (President and Fellows of Harvard College, priority 2014, dated 2021)
